The values below come from ChEMBL document CHEMBL1201862, “PubChem BioAssay data set” (2004).

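In this assay, cells in 96-well plates receive the compound at five concentrations for 48 hours. Endpoints are linearly interpolated between the surrounding concentrations. GI50 marks 50% less growth.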 Activity calls are given as the source filed them. Rule as the data show it: active = GI50 up to about 1.1 µM and inactive = higher. Where only a bound is given, the exact number is not on record here.

Holding throughout (assay): NCI tumour cell line growth inhibition, 48 h
Assay [1] relates to OVCAR-5.
For assay [2], the system named is SK-OV-3.
For assay [3], the system named is UACC-257.
Assay [4] relates to SF-268.
Assay [5] concerns T47D.
Assay [6] has as its system K562.
Assay [7] concerns SR.
In assay [8] the test system is EKVX.
Assay [9] relates to HOP-92.
Assay [10] deals with U-251.
The subject of assay [11] is NCI-H23.
For assay [12], the system named is BT-549.
Assay [13] relates to OVCAR-8.
Assay [14] concerns Hs-578T.
Assay [15] concerns A549.
Assay [16] relates to Malme-3M.
The subject of assay [17] is PC-3.
The test system of assay [18] is SF-295.
For assay [19], the system named is 786-0.

For `CC(=O)O[C@H]1CC[C@H]2[C@@H]3CCC4C(C)=NNC(=O)C4[C@H]3CC[C@]12C` (stereo not given in full), the GI50 is > 100 µM (inactive) in [1]; > 95.1 µM (inactive) in [2]; > 100 µM (inactive) in assay [3]; 34 µM (inactive) in assay [4]; > 100 µM (inactive) in assay [5]; > 100 µM (inactive) in assay [6]. Also, the GI50 in assay [7] was > 100 µM (inactive); in assay [8] it was 48.9 µM (inactive); in assay [9], 37.9 µM (inactive); in [10], 36.5 µM (inactive); in [11] it was > 60.7 µM (inactive); in assay [12], > 45.3 µM (inactive). For the same compound, the GI50 is 38 µM (inactive) in [13]; 17.8 µM (inactive) in [14]; > 100 µM (inactive) in assay [15]; 99.8 µM (inactive) in assay [16]; > 100 µM (inactive) in [17]; 41.5 µM (inactive) in assay [18]. Besides, the GI50 in [19] was 40.3 µM (inactive).
Take `ClCCCCCc1c2nc(c(CCCCCCl)c3ccc([nH]3)c(CCCCCCl)c3nc(c(CCCCCCl)c4ccc1[nH]4)C=C3)C=C2`: the GI50 in assay [1], in assay [2], in assay [3], in assay [4], in assay [5] and in assay [6] was > 100 µM (inactive) in each case. For the same compound, the GI50 in assay [7], in assay [8], in assay [9], in assay [10], in assay [11] and in assay [12] was > 100 µM (inactive) each time. Besides, the GI50 in assay [13], in assay [14], in assay [15], in assay [16], in [17] and in [18] was > 100 µM (inactive) in each case. Besides, the GI50 in assay [19] is > 100 µM (inactive).
As for `CCCCCCCCCc1cccc(N2C(N)=NC(N)=NC2(C)C)c1`, the GI50 in [2] was 1.62 µM (inactive); in [3] it was 0.0611 µM (active); in assay [4] it was < 0.023 µM (active); in [5], 0.528 µM (active); in assay [6], < 0.01 µM (active); in [7], < 0.01 µM (active). Moreover, the GI50 was < 0.0329 µM (active) in assay [8]; 1.58 µM (inactive) in assay [9]; < 0.01 µM (active) in [10]; < 0.01 µM (active) in assay [11]; 1 µM (active) in assay [12]; < 0.01 µM (active) in assay [13]. Moreover, the GI50 in assay [14] is 1.04 µM (active); in [15], < 0.01 µM (active); in assay [16] it was 0.104 µM (active); in assay [17], < 0.0184 µM (active); in assay [18], 0.0148 µM (active); in assay [19], < 0.01 µM (active).
As to `Cc1c(-c2ccccc2)[nH]c2ccc(Cl)cc2c1=O`, the GI50 is 61.9 µM (inactive) in assay [1]; 21.7 µM (inactive) in [2]; 27.8 µM (inactive) in [3]; 30.6 µM (inactive) in assay [4]; 19.4 µM (inactive) in assay [5]; 8.87 µM (inactive) in assay [6]. In addition, the GI50 in assay [7] is 12.2 µM (inactive); in assay [8] it was 47.4 µM (inactive); in assay [9], 20.4 µM (inactive); in [10], 22.9 µM (inactive); in [11], 23.4 µM (inactive); in assay [12], 62.2 µM (inactive). For the same compound, the GI50 in [13] was 22.3 µM (inactive); in [14], 30.5 µM (inactive); in [15] it was 0.0232 µM (active); in assay [16], 18.3 µM (inactive); in [17], 47.6 µM (inactive); in assay [18], 30.8 µM (inactive). In assay [19], the GI50 is 29.8 µM (inactive).
In the case of `O=C1Nc2ccc(S(=O)(=O)NCCO)cc2/C1=C1/Nc2ccccc2C1=O`, the GI50 was 46.5 µM (inactive) in [1]; 5.42 µM (inactive) in [2]; > 100 µM (inactive) in [3]; 9.59 µM (inactive) in [4]; 4.56 µM (inactive) in assay [5]; 4.28 µM (inactive) in assay [6]. Besides, the GI50 in [7] is 1.01 µM (active); in assay [8], 7.69 µM (inactive); in assay [9] it was 13.8 µM (inactive); in [10], 3.16 µM (inactive); in assay [11], 28.4 µM (inactive); in assay [12] it was 3.98 µM (inactive). For the same compound, the GI50 in assay [13] was 11 µM (inactive); in assay [14], 6.73 µM (inactive); in [15] it was > 100 µM (inactive); in assay [16], 40.8 µM (inactive); in assay [17], 12.2 µM (inactive); in assay [18] it was 42 µM (inactive). In assay [19], the GI50 is 9.31 µM (inactive).
On to `O=C1C(Cl)=C(N2CCOCC2)C(=O)c2c(O)ccc(O)c21`, for which the GI50 in assay [1] was 0.497 µM (active); in [2], 2.81 µM (inactive); in [3] it was 0.33 µM (active); in assay [4] it was 1.36 µM (inactive); in [5] it was 0.839 µM (active); in assay [6], 10 µM (inactive). Moreover, the GI50 in assay [7] is 1.4 µM (inactive); in assay [8], 1.46 µM (inactive); in assay [9] it was 0.291 µM (active); in assay [10] it was 0.925 µM (active); in assay [11] it was 0.255 µM (active); in [12], 0.173 µM (active). Besides, the GI50 in assay [13] was 0.368 µM (active); in assay [14] it was 0.859 µM (active); in assay [15], 1.98 µM (inactive); in [16] it was 0.223 µM (active); in assay [17], 0.536 µM (active); in assay [18], 1.64 µM (inactive). Besides, the GI50 in assay [19] is 0.296 µM (active).
Regarding `Cc1cc([C@H](C#N)c2nc3ccccc3[nH]2)nc(Cl)n1`, the GI50 in [2] was > 100 µM (inactive); in assay [3], 26.5 µM (inactive); in assay [4], > 100 µM (inactive); in [5], 21.3 µM (inactive); in assay [6], > 100 µM (inactive); in [7], 54.8 µM (inactive). The GI50 in assay [8] was 62.2 µM (inactive); in [9] it was 20.1 µM (inactive); in [10], 23.6 µM (inactive); in [11], 30.1 µM (inactive); in assay [12], 53.6 µM (inactive); in assay [13] it was 30.4 µM (inactive). For the same compound, the GI50 in [14] is > 100 µM (inactive); in assay [15], 33.9 µM (inactive); in assay [16], 77.3 µM (inactive); in assay [17], 30.9 µM (inactive); in assay [18] it was > 100 µM (inactive); in assay [19] it was 54.5 µM (inactive).
Regarding `CCC(/C=C/c1ccccc1)=N\NC(=S)N/N=C(/C=C/c1ccccc1)CC`, the GI50 in assay [2] is 20.1 µM (inactive); in assay [3] it was 39.6 µM (inactive); in assay [4], 12.8 µM (inactive); in [5], 35.9 µM (inactive); in assay [6], 19.6 µM (inactive); in assay [7], 16.9 µM (inactive). The GI50 in [8] is > 100 µM (inactive); in [9] it was 83.9 µM (inactive); in assay [10], 18.1 µM (inactive); in assay [11] it was 84.3 µM (inactive); in assay [12], > 100 µM (inactive); in [13], 20.4 µM (inactive). In addition, the GI50 is > 100 µM (inactive) in assay [14]; 17.2 µM (inactive) in assay [15]; 90.8 µM (inactive) in assay [16]; 72.9 µM (inactive) in [17]; 87.7 µM (inactive) in assay [18]; 48 µM (inactive) in [19].
On to `O=[N+]([O-])c1cc2c(c([N+](=O)[O-])c1)NCc1ccccc1O2`, for which the GI50 is > 100 µM (inactive) in [1]; > 100 µM (inactive) in assay [3]; > 100 µM (inactive) in assay [4]; > 100 µM (inactive) in assay [5]; > 10 µM (inactive) in [6]; 55.5 µM (inactive) in assay [7]. Moreover, the GI50 was > 100 µM (inactive) in assay [8]; > 100 µM (inactive) in assay [9]; 41.2 µM (inactive) in assay [10]; > 100 µM (inactive) in assay [11]; > 100 µM (inactive) in assay [12]; 71.1 µM (inactive) in [13]. Further, the GI50 in [14] is 70.8 µM (inactive); in assay [15], > 100 µM (inactive); in [16], > 100 µM (inactive); in assay [17] it was > 100 µM (inactive); in [18] it was > 100 µM (inactive); in assay [19], 43.4 µM (inactive).
As to `C/C(=N\NC(=O)c1ccccc1O)c1cccc(/C(C)=N/NC(=O)c2ccccc2O)n1`, the GI50 in [2] is 4.12 µM (inactive); in assay [4], 3.41 µM (inactive); in assay [5], 4.24 µM (inactive); in assay [6], 15 µM (inactive); in assay [7], 1.89 µM (inactive); in assay [8], 13.8 µM (inactive). For the same compound, the GI50 in assay [9] was 10.9 µM (inactive); in [12] it was > 39.4 µM (inactive); in [13] it was 2.13 µM (inactive); in [14] it was > 65.2 µM (inactive); in [15], 9.23 µM (inactive); in assay [16], 10.6 µM (inactive). The GI50 in [17] was 7.1 µM (inactive); in [18], 12.5 µM (inactive); in [19], 5.32 µM (inactive).
As to `O=C1NC(N2CCOCC2)=N/C1=C\c1ccccc1`, the GI50 in assay [1], in [2], in assay [3], in assay [4], in assay [5] and in [7] was > 100 µM (inactive) in each case. For the same compound, the GI50 in [8], in [9], in assay [10], in assay [11], in assay [12] and in assay [13] was > 100 µM (inactive) throughout. Moreover, the GI50 in [14], in assay [15], in assay [16], in assay [17], in assay [18] and in [19] was > 100 µM (inactive) each time.
